The values below come from patent US4921504A, “4-(N-ethyl-N-2-hydroxyethyl)-amino-1-(2 hydroxyethyl)-amino-2-nitrobenzene and compositions for dyeing hair containing the same” (Wella Aktiengesellschaft, priority 1984, dated 1990).

Structures are written as SMILES. In brackets after ≈: the same amount, converted by molar mass. Read-outs that look alike come from different tables or passages of the source.

In one data set the test system is yeast cell. In words: yeast cell-mutagenity test. The data set is classed as cell-based. From the text: 2. yeast cell-mutagenity test
Data set [1] in a line: storage stability of dyes. The data set is classed as physicochemical. Particulars: in dye compositions.
A short description of another data set: solubility in water. The data set is classed as physicochemical. The source says:
In view of the foregoing, it was most surprising to find the blue nitro dye (compound I), being an isomer of compound III and a homologue of compound VI, has sufficiently different characteristics which cannot be derived from known compounds III, IV, V or VI. The dye (I) in accordance with the present invention has a solubility of about 1.0% in water which facilitates the acquisition of dark shades considerably, particularly, in comparison with compound III. […] Rather, an oil is formed from which the dye can later be supplied during the dyeing process. The alternative of redissolving formed crystals would take too much time and, as a result, such crystals would not, again, be available during the dyeing process.

The next data set can be described thus: Ames test. The data set is classed as cell-based.
The nature of the next data set: LD50 (toxicity). The note with it: in vivo.
In a further data set the test system is human-lymphocyte. In words: human-lymphocyte-test. Type of data set: cell-based.
A further data set in a line: light genuiness. Type of data set: physicochemical. Particulars: nitro dyes containing compound I.
For another data set, the system named is mouse-lymphoma. Put plainly: mouse-lymphoma-assay. Type of data set: cell-based.
Data set [2] in a line: general toxicological safety. Particulars: compared with compounds II through VI.
For data set [3] the following is noted: prior-art compound, cited from earlier work.
For data set [4] the following is noted: prior-art compound; cited from earlier work.
The conditions of data set [5]: prior-art compound; doubts recently raised regarding safe use; cited from earlier work.
Setting [6] is: in water without also having to dissolve intermediaries (III).

`CCN(CCO)c1ccc(NCCO)c([N+](=O)[O-])c1` [Compound I, 4-(N-ethyl-N-2'-hydroxyethyl)-amino-1-(2"-hydroxyethyl)-amino-2-nitrobenzene]: the “mutagenicity in yeast cell-mutagenity test” value in the data set on yeast cell was “not mutagenic”. For the same compound, in data set [1], the storage stability result is on record as “extraordinary”. In addition, in the data set “skin compatibility”, the skin compatibility entry is “good skin compatibility”. In addition, in the data set “solubility in water” (exceeding solubility, an oil is formed), the “behaviour when exceeding solubility” value is on record as “does not crystallize”. The same compound had a solubility in the data set “solubility in water” (in water) of approximately 10000 µg/mL (≈ 37.1 mM). In addition, the “mutagenicity in Ames test” value in “Ames test” is on record as “not mutagenic”. The LD50 in “LD50 (toxicity)” was approximately 2000 mg/kg. Further, the mutagenicity in human-lymphocyte-test result with human-lymphocyte is “not mutagenic”. Besides, in the data set “light genuiness”, the light genuiness result is on record as “very good”. Also, the mutagenicity in mouse-lymphoma-assay entry in the data set on mouse-lymphoma was “not mutagenic”. Besides, the toxicological safety result in data set [2] is given as “safe”.

`CCNc1ccc(N(CCO)CCO)cc1[N+](=O)[O-]` [III]: the solubility in water entry in data set [3] (setting [6]) is recorded as “below 0.15%”.

As for `O=[N+]([O-])c1cc(N(CCO)CCO)ccc1NCCO` [IV], in data set [3], the “solubility in water” value was “high solubility”.

In the case of `CN(CCO)c1ccc(NCCO)c([N+](=O)[O-])c1` [VI], the “mutagenic effect in Ames test” value in data set [4] is “mutagenic effect”.

Regarding `CNc1ccc(N(CCO)CCO)cc1[N+](=O)[O-]` [V], the level of toxicity entry in [5] is reported as “possibly unacceptable”. Moreover, in data set [3] (setting [6]), the solubility in water result is given as “about 0.5%”.
